In US10538554B2, “Peptides and uses therefor as antiviral agents” (priority 2015, dated 2020):
Read-outs that look alike come from different tables or passages of the source. Bridge positions count the residues as written; N and C are the ends. Square brackets hold non-standard residues; d marks the D form. Peptide text beside a SMILES is read from it.

What was measured:
[1] = test system: H9N2 A/Iran/16/2000; settings: 48 h, 50 μM
[2] = test system: H1N1 A1/Malaysia/302/1954; settings: A1/Malaysia/302/1954, 48 h, 50 μM
[3] = test system: H3N8 A/Miami/2/63; settings: A/Miami/2/63, 48 h
[4] = test system: H3N2 A/HK/8/1968; settings: A/HK/8/1968, 48 h, 50 μM

SMILES	% inhibition H9N2 [1]	% inhibition H1N1 [2]	% inhibition H3N8 ([3]; 50 μM)	% inhibition H3N2 [4]	% inhibition H3N8 ([3]; 500 μM)
CC[C@@H](C)[C@H]1NC(=O)[C@@H](Cc2ccccc2)NC(=O)[C@@H](CCCNC(=N)N)NC(=O)[C@@H](CS)NC(=O)[C@@H](Cc2c[nH]c3ccccc23)NC(=O)[C@@H]([C@H](C)O)NC(=O)[C@H](NC(=O)[C@H](CCCCN)NC(=O)[C@H](CCCCN)NC(=O)[C@H](CCCNC(=N)N)NC(=O)[C@@H](N)CCCNC(=N)N)CSSC[C@H](C(=O)O)NC(=O)[C@@H](CC(N)=O)NC1=O [PSP III B2, H-RRKKctwcrfinc-OH] (H-RRKK[dC][dT][dW][dC][dR][dF][dI][dN][dC]-OH; disulfide 5-13)	74%	71%	87%	96%	
CC[C@@H](C)[C@H]1NC(=O)[C@@H](Cc2ccccc2)NC(=O)[C@@H](CCCNC(=N)N)NC(=O)[C@@H](CC(=O)O)NC(=O)[C@@H](Cc2c[nH]c3ccccc23)NC(=O)[C@@H]([C@H](C)O)NC(=O)[C@H](NC(=O)[C@H](CCCCN)NC(=O)[C@H](CCCCN)NC(=O)[C@H](CCCNC(=N)N)NC(=O)[C@@H](N)CCCNC(=N)N)CSSC[C@H](C(=O)O)NC(=O)[C@@H](CC(N)=O)NC1=O [PSP III B3, H-RRKKctwdrfinc-OH] (H-RRKK[dC][dT][dW][dD][dR][dF][dI][dN][dC]-OH; disulfide 5-13)	20%	12%	43%	83%	
CC[C@@H](C)[C@H]1NC(=O)[C@@H](Cc2ccccc2)NC(=O)[C@@H](CCCNC(=N)N)NC(=O)[C@@H](CCC(=O)O)NC(=O)[C@@H](Cc2c[nH]c3ccccc23)NC(=O)[C@@H]([C@H](C)O)NC(=O)[C@H](NC(=O)[C@H](CCCCN)NC(=O)[C@H](CCCCN)NC(=O)[C@H](CCCNC(=N)N)NC(=O)[C@@H](N)CCCNC(=N)N)CSSC[C@H](C(=O)O)NC(=O)[C@@H](CC(N)=O)NC1=O [PSP III B4, H-RRKKctwerfinc-OH] (H-RRKK[dC][dT][dW][dE][dR][dF][dI][dN][dC]-OH; disulfide 5-13)	86%	81%	91%	100%	
CC[C@@H](C)[C@H]1NC(=O)[C@@H](Cc2ccccc2)NC(=O)[C@@H](CCCNC(=N)N)NC(=O)CNC(=O)[C@@H](Cc2c[nH]c3ccccc23)NC(=O)[C@@H]([C@H](C)O)NC(=O)[C@H](NC(=O)[C@H](CCCCN)NC(=O)[C@H](CCCCN)NC(=O)[C@H](CCCNC(=N)N)NC(=O)[C@@H](N)CCCNC(=N)N)CSSC[C@H](C(=O)O)NC(=O)[C@@H](CC(N)=O)NC1=O [PSP III B6, H-RRKKctwGrfinc-OH] (H-RRKK[dC][dT][dW]G[dR][dF][dI][dN][dC]-OH; disulfide 5-13)	93%	85%	96%	100%	
CC[C@@H](C)[C@H]1NC(=O)[C@@H](Cc2ccccc2)NC(=O)[C@@H](CCCNC(=N)N)NC(=O)[C@@H]([C@H](C)CC)NC(=O)[C@@H](Cc2c[nH]c3ccccc23)NC(=O)[C@@H]([C@H](C)O)NC(=O)[C@H](NC(=O)[C@H](CCCCN)NC(=O)[C@H](CCCCN)NC(=O)[C@H](CCCNC(=N)N)NC(=O)[C@@H](N)CCCNC(=N)N)CSSC[C@H](C(=O)O)NC(=O)[C@@H](CC(N)=O)NC1=O [PSP III B8, H-RRKKctwirfinc-OH] (H-RRKK[dC][dT][dW][dI][dR][dF][dI][dN][dC]-OH; disulfide 5-13)	81%	88%	91%	100%	
CC[C@@H](C)[C@H]1NC(=O)[C@@H](Cc2ccccc2)NC(=O)[C@@H](CCCNC(=N)N)NC(=O)[C@@H](CCCCN)NC(=O)[C@@H](Cc2c[nH]c3ccccc23)NC(=O)[C@@H]([C@H](C)O)NC(=O)[C@H](NC(=O)[C@H](CCCCN)NC(=O)[C@H](CCCCN)NC(=O)[C@H](CCCNC(=N)N)NC(=O)[C@@H](N)CCCNC(=N)N)CSSC[C@H](C(=O)O)NC(=O)[C@@H](CC(N)=O)NC1=O [PSP III B9, H-RRKKctwkrfinc-OH] (H-RRKK[dC][dT][dW][dK][dR][dF][dI][dN][dC]-OH; disulfide 5-13)	90%	90%	96%	96%	
CC[C@@H](C)[C@H]1NC(=O)[C@@H](Cc2ccccc2)NC(=O)[C@@H](CCCNC(=N)N)NC(=O)[C@@H](CC(C)C)NC(=O)[C@@H](Cc2c[nH]c3ccccc23)NC(=O)[C@@H]([C@H](C)O)NC(=O)[C@H](NC(=O)[C@H](CCCCN)NC(=O)[C@H](CCCCN)NC(=O)[C@H](CCCNC(=N)N)NC(=O)[C@@H](N)CCCNC(=N)N)CSSC[C@H](C(=O)O)NC(=O)[C@@H](CC(N)=O)NC1=O [PSP III B10, H-RRKKctwlrfinc-OH] (H-RRKK[dC][dT][dW][dL][dR][dF][dI][dN][dC]-OH; disulfide 5-13)	90%	92%	96%	100%	
CC[C@@H](C)[C@H]1NC(=O)[C@@H](Cc2ccccc2)NC(=O)[C@@H](CCCNC(=N)N)NC(=O)[C@@H](CCSC)NC(=O)[C@@H](Cc2c[nH]c3ccccc23)NC(=O)[C@@H]([C@H](C)O)NC(=O)[C@H](NC(=O)[C@H](CCCCN)NC(=O)[C@H](CCCCN)NC(=O)[C@H](CCCNC(=N)N)NC(=O)[C@@H](N)CCCNC(=N)N)CSSC[C@H](C(=O)O)NC(=O)[C@@H](CC(N)=O)NC1=O [PSP III B11, H-RRKKctwmrfinc-OH] (H-RRKK[dC][dT][dW][dM][dR][dF][dI][dN][dC]-OH; disulfide 5-13)	93%	94%	96%	100%	
CC[C@@H](C)[C@H]1NC(=O)[C@@H](Cc2ccccc2)NC(=O)[C@@H](CCCNC(=N)N)NC(=O)[C@@H](CC(N)=O)NC(=O)[C@@H](Cc2c[nH]c3ccccc23)NC(=O)[C@@H]([C@H](C)O)NC(=O)[C@H](NC(=O)[C@H](CCCCN)NC(=O)[C@H](CCCCN)NC(=O)[C@H](CCCNC(=N)N)NC(=O)[C@@H](N)CCCNC(=N)N)CSSC[C@H](C(=O)O)NC(=O)[C@@H](CC(N)=O)NC1=O [PSP III B12, H-RRKKctwnrfinc-OH] (H-RRKK[dC][dT][dW][dN][dR][dF][dI][dN][dC]-OH; disulfide 5-13)	83%	75%	87%	100%	
CC[C@@H](C)[C@H]1NC(=O)[C@@H](Cc2ccccc2)NC(=O)[C@@H](CCCNC(=N)N)NC(=O)[C@H]2CCCN2C(=O)[C@@H](Cc2c[nH]c3ccccc23)NC(=O)[C@@H]([C@H](C)O)NC(=O)[C@H](NC(=O)[C@H](CCCCN)NC(=O)[C@H](CCCCN)NC(=O)[C@H](CCCNC(=N)N)NC(=O)[C@@H](N)CCCNC(=N)N)CSSC[C@H](C(=O)O)NC(=O)[C@@H](CC(N)=O)NC1=O [PSP III B13, H-RRKKctwprfinc-OH] (H-RRKK[dC][dT][dW][dP][dR][dF][dI][dN][dC]-OH; disulfide 5-13)	79%	63%	83%	96%	
CC[C@@H](C)[C@H]1NC(=O)[C@@H](Cc2ccccc2)NC(=O)[C@@H](CCCNC(=N)N)NC(=O)[C@@H](CCC(N)=O)NC(=O)[C@@H](Cc2c[nH]c3ccccc23)NC(=O)[C@@H]([C@H](C)O)NC(=O)[C@H](NC(=O)[C@H](CCCCN)NC(=O)[C@H](CCCCN)NC(=O)[C@H](CCCNC(=N)N)NC(=O)[C@@H](N)CCCNC(=N)N)CSSC[C@H](C(=O)O)NC(=O)[C@@H](CC(N)=O)NC1=O [PSP III B14, H-RRKKctwqrfinc-OH] (H-RRKK[dC][dT][dW][dQ][dR][dF][dI][dN][dC]-OH; disulfide 5-13)	86%	83%	87%	96%	
CC[C@@H](C)[C@H]1NC(=O)[C@@H](Cc2ccccc2)NC(=O)[C@@H](CCCNC(=N)N)NC(=O)[C@@H](CCCNC(=N)N)NC(=O)[C@@H](Cc2c[nH]c3ccccc23)NC(=O)[C@@H]([C@H](C)O)NC(=O)[C@H](NC(=O)[C@H](CCCCN)NC(=O)[C@H](CCCCN)NC(=O)[C@H](CCCNC(=N)N)NC(=O)[C@@H](N)CCCNC(=N)N)CSSC[C@H](C(=O)O)NC(=O)[C@@H](CC(N)=O)NC1=O [PSP III B15, H-RRKKctwrrfinc-OH] (H-RRKK[dC][dT][dW][dR][dR][dF][dI][dN][dC]-OH; disulfide 5-13)	84%	83%	91%	100%	
CC[C@@H](C)[C@H]1NC(=O)[C@@H](Cc2ccccc2)NC(=O)[C@@H](CCCNC(=N)N)NC(=O)[C@@H](CO)NC(=O)[C@@H](Cc2c[nH]c3ccccc23)NC(=O)[C@@H]([C@H](C)O)NC(=O)[C@H](NC(=O)[C@H](CCCCN)NC(=O)[C@H](CCCCN)NC(=O)[C@H](CCCNC(=N)N)NC(=O)[C@@H](N)CCCNC(=N)N)CSSC[C@H](C(=O)O)NC(=O)[C@@H](CC(N)=O)NC1=O [PSP III B16, H-RRKKctwsrfinc-OH] (H-RRKK[dC][dT][dW][dS][dR][dF][dI][dN][dC]-OH; disulfide 5-13)	88%	88%	96%	96%	100%
CC[C@@H](C)[C@H]1NC(=O)[C@@H](Cc2ccccc2)NC(=O)[C@@H](CCCNC(=N)N)NC(=O)[C@@H]([C@H](C)O)NC(=O)[C@@H](Cc2c[nH]c3ccccc23)NC(=O)[C@@H]([C@H](C)O)NC(=O)[C@H](NC(=O)[C@H](CCCCN)NC(=O)[C@H](CCCCN)NC(=O)[C@H](CCCNC(=N)N)NC(=O)[C@@H](N)CCCNC(=N)N)CSSC[C@H](C(=O)O)NC(=O)[C@@H](CC(N)=O)NC1=O [PSP III B17, H-RRKKctwtrfinc-OH] (H-RRKK[dC][dT][dW][dT][dR][dF][dI][dN][dC]-OH; disulfide 5-13)	86%	79%	96%	96%	
